In patent US7452908B2, “Amide derivatives” (Banyu Pharmaceutical Co., Ltd., priority 1999, dated 2008):

Experiments:
[1] = molecular target: T1, human m1 muscarinic acetylcholine receptor expressed in CHO cells (Homo sapiens, UniProt P11229); assay: Inhibition of [3H]-N-methylscopolamine binding to muscarinic m1 receptor; details: 0.2 nM [3H]-N-methylscopolamine
T1 construct: purchased Receptor Biology, Inc; host or cells: CHO cells
T1 sequence (P11229 1-460): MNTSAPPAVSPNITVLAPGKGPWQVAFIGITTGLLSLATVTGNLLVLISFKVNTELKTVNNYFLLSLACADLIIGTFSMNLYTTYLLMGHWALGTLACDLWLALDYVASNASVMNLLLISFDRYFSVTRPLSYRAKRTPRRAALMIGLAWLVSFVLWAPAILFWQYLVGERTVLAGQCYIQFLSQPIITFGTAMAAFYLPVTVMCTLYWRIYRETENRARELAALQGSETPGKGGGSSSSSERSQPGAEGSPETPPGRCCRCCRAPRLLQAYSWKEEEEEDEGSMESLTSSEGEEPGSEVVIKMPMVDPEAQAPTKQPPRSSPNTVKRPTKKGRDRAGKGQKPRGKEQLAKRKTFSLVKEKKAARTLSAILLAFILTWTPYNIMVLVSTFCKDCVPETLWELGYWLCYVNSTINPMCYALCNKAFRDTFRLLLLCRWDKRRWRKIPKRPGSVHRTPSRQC
Experimental: (§1) These tests were performed according to a modification of the method of Hargreaves, et al. (Br. J. Pharmacol. 107: 494-501, 1992). Namely, muscarinic acetylcholine receptors of human m1, m2, m3, m4 and m5 expressed in CHO cells (Receptor Biology, Inc.) were incubated with 0.2 nM [^3H]-N-methylscopolamine (82Ci/mmol, New England Nuclear, Inc.) and a test compound to be tested in 0.5 ml of 50 mM Tris-HCl, 10 mM MgCl2, 1 mM EDTA solution (pH 7.4) for 120 minutes at room temperature (about 20-25° C.), followed by suction filtration over a glass filter (UniFilter plate-GF/C; Packard). Then the filter was washed four times with 1 ml of ice-cold Tris-HCl buffer and dried at 50° C. for an hour. After adding a scintillator (Microscinti 0; Packard), the radioactivity of [^3H]-N-methylscopolamine binding to the filter was counted with a microplate scintillation counter (TopCount™; Packard). Non-specific receptor binding of [^3H]-N-methylscopolamine was measured by adding 1 μM N-methylscopolamine.

[2] = molecular target: T2, human m2 muscarinic acetylcholine receptor expressed in CHO cells (Homo sapiens, UniProt P08172); assay: Inhibition of [3H]-N-methylscopolamine binding to muscarinic m2 receptor; details: 0.2 nM [3H]-N-methylscopolamine
T2 construct: purchased Receptor Biology, Inc; host or cells: CHO cells
T2 sequence (P08172 1-466): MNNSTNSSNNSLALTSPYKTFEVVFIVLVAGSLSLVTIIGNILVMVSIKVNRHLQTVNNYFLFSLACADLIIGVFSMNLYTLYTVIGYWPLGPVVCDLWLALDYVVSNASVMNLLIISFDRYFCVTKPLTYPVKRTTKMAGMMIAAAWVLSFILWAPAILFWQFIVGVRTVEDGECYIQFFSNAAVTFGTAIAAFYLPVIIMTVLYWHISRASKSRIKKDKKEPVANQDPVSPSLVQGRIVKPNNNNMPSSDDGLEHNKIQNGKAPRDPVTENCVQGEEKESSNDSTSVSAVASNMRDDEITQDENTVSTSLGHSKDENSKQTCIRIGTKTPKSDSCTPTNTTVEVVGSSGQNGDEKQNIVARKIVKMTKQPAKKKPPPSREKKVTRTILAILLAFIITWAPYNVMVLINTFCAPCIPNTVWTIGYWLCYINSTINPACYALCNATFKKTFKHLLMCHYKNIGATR
Experimental: as §1

[3] = molecular target: T3, M2 receptor in isolated rat right atrium (Rattus norvegicus, UniProt P10980); assay: Antagonism to M2 receptor in isolated rat right atrium (carbachol-induced decrease in heart rate); type: cell-based; details: shift of carbachol dose-response curve
T3 construct: from tissue; host or cells: right atrium of male SD rats
T3 sequence (P10980 1-466): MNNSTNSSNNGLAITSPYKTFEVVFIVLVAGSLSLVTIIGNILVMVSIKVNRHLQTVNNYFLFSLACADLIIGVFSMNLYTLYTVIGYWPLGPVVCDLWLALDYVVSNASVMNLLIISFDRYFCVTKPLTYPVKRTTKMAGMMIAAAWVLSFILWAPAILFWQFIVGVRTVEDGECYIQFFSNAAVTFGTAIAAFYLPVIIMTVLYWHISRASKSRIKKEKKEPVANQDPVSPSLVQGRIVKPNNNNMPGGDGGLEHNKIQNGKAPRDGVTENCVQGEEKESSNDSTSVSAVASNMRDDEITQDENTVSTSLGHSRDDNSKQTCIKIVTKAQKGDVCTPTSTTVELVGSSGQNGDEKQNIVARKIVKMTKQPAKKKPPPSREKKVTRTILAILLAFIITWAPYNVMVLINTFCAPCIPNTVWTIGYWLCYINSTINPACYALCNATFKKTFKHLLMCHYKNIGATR
Experimental: The test was performed according to a conventional method. Male SD strain rats (weighing 300-500 g) were killed by exsanguination, and from each of them the right atrium was isolated. Each preparation was isometrically suspended in a Magnus tube filled with 20 ml of Krebs-Henseleit solution (gassed with 95% O2-5% CO2 and kept at 32° C.) with an initial tension of 0.5 g. The heart rate was recorded with a heart rate counter. After the preparation was equilibrated for 30 minutes, carbachol (10^−9 to 10^−6 M) was cumulatively administered from a low concentration to three-fold increasing doses and accompanying decrease in heart rate was measured to obtain a dose-responsecurve for the control experiment. Afterthe preparation was washed with fresh solution to restore the heart rate, a test compound was administered thereto. Ten minutes later, carbachol was cumulatively administered again. Responses to carbachol were expressed as percentages based on the heart rate before administration of carbachol as 100%. The antagonistic potency (KB value) of the test compound was determined from the degree of shift of the dose-responsecurve attributable to the treatment with individual test compound of the present invention. The results were as shown in Tables 2-1 and 2-2. • 2) Test for Antagonism to the Airway M3 Receptor in Isolated Rat Trachea

M2 receptor = molecular target: T4, M2 receptor (Rattus norvegicus, UniProt P10980); assay: Antagonism to M2 receptor in vivo: acetylcholine-induced bradycardia reaction in rats; details: iv, acetylcholine (10 μg/kg) 5 minutes after test compound
T4 construct: from tissue; host or cells: whole animal, male SD rats (in vivo)
T4 sequence (P10980 1-466): T3 sequence (P10980 1-466)
Experimental: Male SD strain rats (weighing 300-500 g) were anesthetized with urethane (1 g/kg) and α-chloralose (50 mg/kg) administered intraperitoneally. […] In this experiment, one-dosage evaluation was conducted per one animal of the tested rats.

Ki [1] | Ki [2] | ED50 (M2 receptor) | Structure (SMILES) | Kb [3]
0.14 µM | 0.034 µM | 1.55 mg/kg | O=C(CCNC(=O)CNC(=O)CC(c1ccccc1)(c1ccccc1)c1ccccc1)NC[C@H]1CCCN(CC2CCCCC2)C1 [Example 12, N-{2-(3-{((3R)-1-cyclohexylmethyl-3-piperidyl)methyl}amino-3-oxopropyl)amino-2-oxoethyl}-3,3,3-triphenyloropanamide] | 0.16 µM
> 2.5 µM | 0.81 µM | 0.114 mg/kg | CC[N+]1(CC)CCC[C@H](CNC(=O)[C@H]2CCCN2C(=O)[C@@H]2C[C@@H](O)CN2C(=O)CC(c2ccccc2)(c2ccccc2)c2ccccc2)C1.[Cl-] [Example 133, (3R)-1,1-diethyl-3-({({(2R)-1-({(2S,4R)-4-hydroxy-1-(3,3,3-triphenylpropanoyl)-2-pyrrolidinyl}carbonyl)-2-pyrrolidinyl}carbonyl)amino}methyl)piperidinium chloride] | 0.041 µM
